Data: PMC8438848 (Journal for Immunotherapy of Cancer, 2021)
Ends that are not written are not given here.

Experiments:
HLA-A03:01 = HLA-A03:01 (Homo sapiens, UniProt P04439); experiment: IC50 in vitro measurement, peptide exchange assay with fluorescence anisotropy
HLA-B27:05 = HLA-B27:05 (Homo sapiens, UniProt P01889, D138H/D201E/E176V/E204Q/G107R/H137Y/K202T/N104T/N87E/Q56L/Q94K/R106L/R155S/R180L/S101D/S121N/S48T/Y140D/Y33H/Y91C); experiment: as above; format: binding

Sequence | IC50 (HLA-A03:01) [nM] | IC50 (HLA-B27:05) [nM]
RLFLGLAIK [KIF2C^P13L] | 237.4 ± 2 | –
GRIAFFLKY [SYTL4^S363F] | – | 214.7 ± 1.8
GRIAFSLKY [SYTL4^WT] | – | 97.3 ± 2.1
KPILWRGLK [NCAPG2^WT] | 4490 | –
KLILWRGLK [NCAPG2^P333L] | 202.9 ± 1.03 | –
RLFPGLAIK [KIF2C^WT] | 146.2 ± 1.1 | –
